Assay results taken from US8685916B2, “Opioid prodrugs with heterocyclic linkers” (Signature Therapeutics, Inc., priority 2011, dated 2014).
Where two headings read alike, the source gives them in different places.

Tests used:
trypsin [1] = target: T1, trypsin (Bos taurus, UniProt P00760); assay: In vitro trypsin-mediated cleavage of hydrocodone prodrugs; assay type: biochemical, bovine; conditions: bovine, trypsin from bovine pancreas, pH 8; adjusted to 4815 BAEE U trypsin/mL; read-out: Prodrug trypsin half-life (converted)
T1 construct: purchased Sigma-Aldrich T8003; host or cells: bovine pancreas (tissue-derived preparation)
T1 sequence (P00760 24-246): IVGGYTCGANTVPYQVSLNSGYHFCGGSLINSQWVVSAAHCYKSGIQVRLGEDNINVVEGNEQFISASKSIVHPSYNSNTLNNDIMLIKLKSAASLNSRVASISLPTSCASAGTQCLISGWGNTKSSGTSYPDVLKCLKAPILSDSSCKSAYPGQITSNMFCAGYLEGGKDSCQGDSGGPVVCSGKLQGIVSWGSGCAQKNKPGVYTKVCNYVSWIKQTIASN
Method: (§1) The reactions were conducted at 37° C. for 24 h.
(§2) Table 9 indicates the results of exposure of the tested prodrugs to trypsin.

[2] = Pharmacokinetics of oxycodone prodrugs following PO administration to dogs; conditions: oxycodone in dog plasma, 5.7-[…] (prodrugs 4.15-[…]; oxycodone 2 mg/kg; OxyContin 20 mg tablet)
[3] = target: T2, trypsin from bovine pancreas (Bos taurus, UniProt P00760); assay: In vitro trypsin-mediated cleavage of oxycodone prodrugs; assay type: biochemical; conditions: 0.761 mM prodrug, Tris pH 8, 37° C.
T2 construct: purchased Sigma-Aldrich T8003; host or cells: bovine pancreas (tissue-derived preparation)
T2 sequence (P00760 24-246): T1 sequence (P00760 24-246)
Method: as §1
(§3) Table 4 indicates the results of exposure of the tested prodrugs to trypsin. […] Table 4 also indicates the cyclization rate of the cyclizable spacer leaving group of Compound KC-9, Compound KC-11, and Compound KC-18. The results are expressed as half-life of compound disappearance. For Compound KC-11, a diastereomer, two peaks (A and B) were analyzed.

trypsin [4] = target: T1, trypsin; assay: as above; assay type: biochemical, bovine; conditions: bovine, trypsin from bovine pancreas; 0.761 mM prodrug, Tris pH 8, 37° C.; adjusted to 4815 BAEE U trypsin/mL
Method: as §1, §3

[5] = Pharmacokinetics following PO administration of ketone-modified oxycodone prodrugs to rats
[6] = target: T2, trypsin from bovine pancreas; assay: In vitro trypsin-mediated cleavage of hydrocodone prodrugs; assay type: biochemical
Method: as §1, §2

[7] = target: T2, trypsin from bovine pancreas; assay: In vitro trypsin conversion of Compound TP-5 to tapentadol and inhibition by Compound 109; assay type: biochemical
Method: (§4) Other reaction, incubation, sample treatment and analysis procedures were similar to those described in Example 39.

trypsin [8] = target: T1, trypsin; assay: as above; assay type: biochemical, bovine; conditions: bovine, trypsin from bovine pancreas, read-out: Pro-drug trypsin half-life, Average ± sd (converted)
Method: as §4

[9] = Oral administration of hydrocodone prodrugs KC-40 or KC-50 co-dosed with Compound 109 to rats; conditions: rat; for Cmax: HC Cmax ± sd
[10] = Pharmacokinetics following PO administration of increasing doses of Compound KC-31 to rats; conditions: male, Sprague Dawley, rat, plasma, 10 mg/kg
[11] = Pharmacokinetics of hydrocodone prodrugs following PO administration to dogs, with or without Compound 109
[12] = oxycodone in rat plasma, 28-34 μmol/kg (prodrugs 16-24 mg/kg; oxycodone 10 mg/kg)

`COc1ccc2c3c1O[C@H]1C(OC(=O)N4CC(C(=O)O)CCC4CNC(=O)[C@H](CCCNC(=N)N)NC(=O)CNC(C)=O)=CC[C@H]4[C@@H](C2)N(C)CC[C@]314` (mixture of isomers) [Compound KC-32, N-(hydrocodone-6-enol-carbonyl)-[(2-methylamino)piperidine-3-carboxylate]-L-arginine-glycine-acetate] gave a half-life at 0.761 mM (trypsin [1]) of 9 min.

In the case of `COc1ccc2c3c1O[C@H]1C(OC(=O)N(C)CCNC(=O)[C@H](CCCNC(=N)N)NC(=O)CC(=O)O)=CC[C@@]4(O)[C@@H](C2)N(C)CC[C@]314` [Compound KC-3, N-1-[2-(oxycodone-6-enol-carbonyl-methyl-amino)-ethylamine]-L-arginine-malonate], the “AUC ± sd” value [2] is reported as 65.6 ± 22 ng·h/mL and the “OC Cmax ± sd” value [2] is reported as 10.2 ± 3.3 ng/mL.

`COc1ccc2c3c1O[C@H]1C(OC(=O)N4CCCC4CNC(=O)[C@H](CCCNC(=N)N)NC(=O)CC(=O)O)=CC[C@@]4(O)[C@@H](C2)N(C)CC[C@]314` (stereo partly drawn) [Compound KC-10, N-(oxycodone-6-enol-carbonyl)pyrrolidine-2-methylamine-L-arginine-malonate] showed an OC formation rate [3] of 0.00274 ± 0.00027 μmol/h/BAEE U and a half-life at 0.761 mM (trypsin [4]) of 9.01 ± 0.306 min.

In the case of `COc1ccc2c3c1O[C@H]1C(OC(=O)N4CCCCC4CN)=CC[C@@]4(O)[C@@H](C2)N(C)CC[C@]314` (some centres unmarked) [Compound KC-11, N-(oxycodone-6-enol-carbonyl)piperidine-2-methylamine], the “AUC ± sd” value ([5]; oxycodone in rat plasma, 0 to 24 h, 28-34 μmol/kg (prodrugs 16-24 mg/kg; oxycodone 10 mg/kg)) is reported as 57.0 ± 9.0 ng·h/mL, the “OC Cmax ± sd” value [5, 12] is reported as 13.6 ± 3.0 ng/mL and the “Tmax ± sd” value [5, 12] is reported as 60 ± 0 min. For the same compound, the “release of oxycodone compared with Compound KC-9” value ([5]; rats) was “significantly more oxycodone than does Compound KC-9”.

Compound `COc1ccc2c3c1O[C@H]1C(OC(=O)N4CCCCC4CNC(=O)[C@H](CCCNC(=N)N)NC(=O)CC(=O)O)=CC[C@@]4(O)[C@@H](C2)N(C)CC[C@]314` (stereo partly drawn) [Compound KC-12, N-(oxycodone-6-enol-carbonyl)piperidine-2-methylamine-L-arginine-malonate] has an OC formation rate [3] of 0.231 ± 0.0097 μmol/h/BAEE U and a half-life at 0.761 mM (trypsin [4]) of 9.498 ± 0.0114 min.

For `COc1ccc2c3c1O[C@H]1C(OC(=O)N4CCCCC4CNC(=O)[C@H](CCCNC(=N)N)NC(=O)[C@H](C)NC(C)=O)=CC[C@@]4(O)[C@@H](C2)N(C)CC[C@]314` (stereo partly drawn) [Compound KC-13, N-(oxycodone-6-enol-carbonyl)piperidine-2-methylamine-L-arginine-L-alanine-acetate], the OC formation rate [3] was 47.1 ± 5.72 μmol/h/BAEE U and the half-life at 0.761 mM (trypsin [4]) was 0.0458 ± 0.00051 min.

With `COc1ccc2c3c1O[C@H]1C(OC(=O)N4CCCCC4CNC(=O)[C@H](CCCNC(=N)N)NC(=O)CNC(C)=O)=CC[C@@]4(O)[C@@H](C2)N(C)CC[C@]314` (stereo partly drawn) [Compound KC-14, N-(oxycodone-6-enol-carbonyl)piperidine-2-methylamine-L-arginine-glycine-acetate] the OC formation rate [3] was 5.48 ± 0.1 μmol/h/BAEE U and the half-life at 0.761 mM (trypsin [4]) was 0.5143 ± 0.00198 min.

`COc1ccc2c3c1O[C@H]1C(OC(=O)N4CCCCC4CNC(=O)[C@H](CCCNC(=N)N)NC(=O)[C@H](C)NC(=O)CC(=O)O)=CC[C@@]4(O)[C@@H](C2)N(C)CC[C@]314` (stereo partly drawn) [Compound KC-15, N-(oxycodone-6-enol-carbonyl)piperidine-2-methylamine-L-arginine-L-alanine-malonate] showed an OC formation rate [3] of 22.3 ± 0.8 μmol/h/BAEE U and a half-life at 0.761 mM (trypsin [4]) of 0.173 ± 0.0114 min.

`COc1ccc2c3c1O[C@H]1C(OC(=O)N4CCCCC4CNC(=O)[C@H](CCCNC(=N)N)NC(=O)CNC(=O)CC(=O)O)=CC[C@@]4(O)[C@@H](C2)N(C)CC[C@]314` (stereo partly drawn) [Compound KC-16, N-(oxycodone-6-enol-carbonyl)piperidine-2-methylamine-L-arginine-glycine-malonate] showed an OC formation rate [3] of 1.46 ± 0.093 μmol/h/BAEE U and a half-life at 0.761 mM (trypsin [4]) of 2.37 ± 0.162 min.

Compound `COc1ccc2c3c1O[C@H]1C(OC(=O)N4CCCC[C@@H]4CNC(=O)[C@H](CCCNC(=N)N)NC(=O)CNC(=O)CC(=O)O)=CC[C@@]4(O)[C@@H](C2)N(C)CC[C@]314` [Compound KC-17, N-(oxycodone-6-enol-carbonyl)-R-(piperidine-2-methylamine)-L-arginine-glycine-malonate] has an OC formation rate [3] of 1.23 ± 0.011 μmol/h/BAEE U and a half-life at 0.761 mM (trypsin [4]) of 2.65 ± 0.117 min.

Work on `COc1ccc2c3c1O[C@H]1C(OC(=O)N4CCCC[C@@H]4CNC(=O)[C@H](CCCNC(=N)N)NC(=O)CNC(=O)CC(=O)O)=CC[C@H]4[C@@H](C2)N(C)CC[C@]314` [Compound KC-31, N-(hydrocodone-6-enol-carbonyl)-R-(piperidine-2-methylamine)-L-arginine-glycine-malonate] yielded a half-life at 0.761 mM (trypsin [1]) of 3.9 min.

Compound `COc1ccc2c3c1O[C@H]1C(OC(=O)N4CCCC[C@@H]4CNC(=O)[C@H](CCCNC(=N)N)NC(=O)[C@H](C)NC(=O)CC(=O)O)=CC[C@H]4[C@@H](C2)N(C)CC[C@]314` [Compound KC-35, N-(hydrocodone-6-enol-carbonyl)-R-(piperidine-2-methylamine)-L-arginine-L-alanine-malonate] has a half-life at 0.761 mM (trypsin [1]) of 0.48 min.

Compound `COc1ccc2c3c1O[C@H]1C(OC(=O)N4CCCC[C@@H]4CNC(=O)[C@H](CCCNC(=N)N)NC(=O)CNC(C)=O)=CC[C@H]4[C@@H](C2)N(C)CC[C@]314` [Compound KC-36, N-(hydrocodone-6-enol-carbonyl)-R-(piperidine-2-methylamine)-L-arginine-glycine-acetate] has an HC formation rate [6] of 0.004 ± 0.00 μmol/h/BAEE U and a half-life at 0.761 mM (trypsin [1]) of 1.08 min.

In the case of `COc1ccc2c3c1O[C@H]1C(OC(=O)N4CCCC[C@@H]4CNC(=O)[C@H](CCCNC(=N)N)NC(=O)[C@H](C)NC(C)=O)=CC[C@H]4[C@@H](C2)N(C)CC[C@]314` [Compound KC-37, N-(hydrocodone-6-enol-carbonyl)-R-(piperidine-2-methylamine)-L-arginine -L-alanine-acetate], the HC formation rate [6] is reported as 0.004 ± 0.00 μmol/h/BAEE U.

For `COc1ccc2c3c1O[C@H]1C(OC(=O)N4CCCC[C@@H]4CNC(=O)[C@H](CCCNC(=N)N)NC(C)=O)=CC[C@H]4[C@@H](C2)N(C)CC[C@]314` [Compound KC-38, N-(hydrocodone-6-enol-carbonyl)-R-(piperidine-2-methylamine)-L-arginine-acetate], the HC formation rate [6] was 0.001 ± 0.00 μmol/h/BAEE U and the half-life at 0.761 mM (trypsin [1]) was 7.2 ± 0.6 min.

Work on `COc1ccc2c3c1O[C@H]1C(OC(=O)N4CCCC[C@@H]4CNC(=O)[C@H](CCCNC(=N)N)NC(=O)CC(=O)O)=CC[C@H]4[C@@H](C2)N(C)CC[C@]314` [Compound KC-39, N-(hydrocodone-6-enol-carbonyl)-R-(piperidine-2-methylamine)-L-arginine-malonate] yielded an HC formation rate [6] of 0.00 ± 0.00 μmol/h/BAEE U and a half-life at 0.761 mM (trypsin [1]) of 23.9 min.

For `CC[C@@H](c1cccc(OC(=O)N2CCCCC2CNC(=O)[C@@H](CCCNC(=N)N)NC(=O)CC(=O)O)c1)[C@@H](C)CN(C)C` (stereo partly drawn) [Compound TP-5, N-(Tapentadol-carbonyl)piperidine-2-methylamine-L-arginine-malonate], the “Rate of TP formation, Average ± sd” value ([7]; Compound 109 0 μM) was 0.684 ± 0.036 μmol/h/BAEE U, the “Rate of TP formation, Average ± sd” value ([7]; Compound 109 8 μM) was 0.1043 ± 0.0049 μmol/h/BAEE U and the half-life (trypsin [8]; with Compound 109 (trypsin inhibitor), 8 µM) was 62.4 ± 0.0366 min. The half-life (trypsin [8]) was 3.99 ± 0.00024 min.

`COc1ccc2c3c1O[C@H]1C(=O)CC[C@H]4[C@@H](C2)N(C)CC[C@]314` [Hydrocodone, hydrocodone] gave a Tmax ([9]; Sprague Dawley, plasma, po, […]) of 63.6 min, a Cmax ([9]; Sprague Dawley, plasma, po, […], Table 11A: hydrocodone values in Table 10 adjusted to provide expected values at a […] (62 μmol/kg) dose) of 11.9 ng/mL and a Cmax ([9]; Sprague Dawley, plasma, po, […], Table 11B: hydrocodone values in Table 10 adjusted to provide expected values at a 62 μmol/kg ([…]) dose) of 12.4 ng/mL. The “Tmax ± sd” value ([9]; Table 11B: hydrocodone values in Table 10 adjusted to provide expected values at a 62 μmol/kg ([…]) dose) was 63.6 min, the Cmax [10] was 5.49 ± 1.7 ng/mL and the Tmax [10] was 63.6 ± 43.2 min. For the same compound, the “HC Cmax ± sd” value ([11]; Table 12: dog, […] values adjusted to expected value for a 2 μmol/kg dose (4 dose equivalents)) was 56.0 n/a^ ng/mL, the “HC Cmax ± sd” value ([11]; Table 12: dog, […] values adjusted to expected value for a 5 μmol/kg dose (10 dose equiv)) was 140 n/a^ ng/mL and the “HC Cmax ± sd” value ([11]; Table 13: dog plasma, PO, hydrocodone […] (0.5 μmol/kg)) was 14.0 ± 4.3^ ng/mL. For the same compound, the “HC Cmax ± sd” value ([11]; Table 13: dog, […] values adjusted to expected value for a 5 μmol/kg dose (10 dose equiv)) was 140 n/a^ ng/mL.
